According to patent US4051237A, “Glycopeptide antibiotics Bu-2231 A and B and process for producing same” (priority 1975, dated 1977):
Where two headings read alike, the source gives them in different places.

What was measured:
E. coli NIHJ [1] = assay: MIC by two-fold agar dilution; assay type: cell-based; details: Mueller-Hinton agar, unit assumed
E. coli A20732 = assay: MIC by two-fold agar dilution; assay type: cell-based; details: Mueller-Hinton agar, unit assumed
K. pneumoniae A9678 = assay: MIC by two-fold agar dilution; assay type: cell-based; details: Mueller-Hinton agar, unit assumed
K. pneumoniae A20328 = assay: MIC by two-fold agar dilution; assay type: cell-based; details: Mueller-Hinton agar, unit assumed
P. stuartii A20894 = assay: MIC by two-fold agar dilution; assay type: cell-based; details: Mueller-Hinton agar, unit assumed
S. marcescens A20460 = assay: MIC by two-fold agar dilution; assay type: cell-based; details: Mueller-Hinton agar, unit assumed
P. aeruginosa A9930 = assay: MIC by two-fold agar dilution; assay type: cell-based; details: Mueller-Hinton agar, unit assumed
S. aureus 209P = assay: MIC by two-fold agar dilution; assay type: cell-based; details: Mueller-Hinton agar, unit assumed
B. mycoides "0" = assay type: cell-based; details: Mueller-Hinton agar, unit assumed
B. cereus ATCC 10702A = assay: MIC by two-fold agar dilution; assay type: cell-based; details: Mueller-Hinton agar, unit assumed
B. anthracis 115 = assay type: cell-based; details: Mueller-Hinton agar, unit assumed
[2] = test system: Mycobacterium ranae, ATCC110; assay: MIC by two-fold agar dilution; assay type: cell-based; details: Medium #1001, unit assumed
C. tropicalis IAM 4157 = assay: MIC by two-fold agar dilution; assay type: cell-based; details: Ct-1 C. tropicalis IAM 4157; sabouraud agar; unit assumed
[3] = test system: C. tropicalis #125 A15051; assay: MIC by two-fold agar dilution; assay type: cell-based; details: Ct-4 C. tropicalis #125 A15051; sabouraud agar; unit assumed
C. neoformans IAM 4514 = assay: MIC by two-fold agar dilution; assay type: cell-based; details: Cn-2 C. neoformans IAM 4514; sabouraud agar; unit assumed
A. niger var Tieghem = assay: MIC by two-fold agar dilution; assay type: cell-based; details: An-1 A. niger var Tieghem; sabouraud agar; unit assumed
[4] = test system: F. moniliforme NRRL A2284; assay: MIC by two-fold agar dilution; assay type: cell-based; details: Fm-1 F. moniliforme NRRL A2284; sabouraud agar; unit assumed
C. lunata ATCC 13432 = assay: MIC by two-fold agar dilution; assay type: cell-based; details: Cl-1 C. lunata ATCC 13432; sabouraud agar; unit assumed
T. mentagrophytes D-155 = assay: MIC by two-fold agar dilution; assay type: cell-based; details: Tm-1 T. mentagrophytes D-155; sabouraud agar; unit assumed
M. canis D-51 = assay: MIC by two-fold agar dilution; assay type: cell-based; details: Mc-1 M. canis D-51; sabouraud agar; unit assumed
S. aureus Smith = assay: In vivo activity in experimental mice infection; details: Table 11
Procedure: (§1) The in vivo activity of Bu-2231 complex was evaluated in experimental mice infections against S. aureus Smith and E. coli NIHJ. Bleomycin was tested comparatively as a reference antibiotic.

E. coli NIHJ [5] = assay: In vivo activity in experimental mice infection; details: Table 11 second part
Procedure: as §1
The in vivo activty of the individual components of Bu-2231 in each of the copper-free and copper complex forms was also determined in E. coli infection.

[6] = test system: Walker 256 carcinosarcoma in ascitic form; details: for Average Weight Change: recorded Day 5; for Survivors Day 44: survivors considered cured; for Survivors Day 5: toxicity evaluation;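 as to all read-outs here: female SD rats bearing intraperitoneally implanted ascites tumor cells, treated ip once a day for 8 days beginning on Day 1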
Lewis Lung carcinoma = details: Exp. #55; for Survivors Day 5: toxicity evaluation
S. aureus 209P, R4 = assay: MIC by two-fold agar dilution; assay type: cell-based; details: Mueller-Hinton agar, unit assumed
Procedure: The minimum inhibitory concentrations (MIC) of Bu-2231 A and B were determined against a wide variety of bacteria and fungi by the two-fold agar dilution method. Mueller-Hinton agar medium was used for the determination of bacterial MIC's (gram-positive and gram-negative), Medium #1001 [Glycerol (3%). Na-glutamate (0.3%), peptone (0.2%), Na2 HPO4 (0.31%), KH2 PO4 (0.1%), ammonium citrate (0.005%), MgSO4.7H2 O (0.001%), agar (1.5%)] for acid-fast bacteria and sabouraud agar for fungi. The results are shown in Tables 9 and 10 comparatively with bleomycin and phleomycin. The antibacterial and antifungal activities of Bu-2231 A and B are much higher than those of the reference antibiotics.

[7] = Exp. #5439, 160 mcg/kg/day ip once daily for 8 days
[8] = Exp. #5439, 640 mcg/kg/day ip once daily for 8 days
[9] = Exp. #5439, 2560 mcg/kg/day ip once daily for 8 days
[10] = 1 mg/kg/day ip once daily for 9 days
[11] = 2 mg/kg/day ip once daily for 9 days
[12] = 4 mg/kg/day ip once daily for 9 days
[13] = 8 mg/kg/day ip once daily for 9 days

Substance Bleomycin [reference compound] has an MIC (E. coli NIHJ [1]) of 0.8 µg/mL, an MIC (E. coli A20732) of 1.6 µg/mL and an MIC (K. pneumoniae A9678) of 6.3 µg/mL. The MIC (K. pneumoniae A20328) was 25 µg/mL, the MIC (P. stuartii A20894) was 3.1 µg/mL and the MIC (S. marcescens A20460) was > 100 µg/mL. The MIC (P. aeruginosa A9930) was > 100 µg/mL, the MIC (S. aureus 209P) was 6.3 µg/mL and the MIC (B. mycoides "0") was 12.5 µg/mL. For the same substance, the MIC (B. cereus ATCC 10702A) was 1.6 µg/mL, the MIC (B. anthracis 115) was 12.5 µg/mL and the MIC [2] was 0.8 µg/mL. For the same substance, the MIC (C. tropicalis IAM 4157) was 12.5 µg/mL, the MIC [3] was > 100 µg/mL and the MIC (C. neoformans IAM 4514) was 1.6 µg/mL. For the same substance, the MIC (A. niger var Tieghem) was 0.4 µg/mL, the MIC [4] was > 100 µg/mL and the MIC (C. lunata ATCC 13432) was 0.1 µg/mL. The MIC (T. mentagrophytes D-155) was > 100 µg/mL, the MIC (M. canis D-51) was > 100 µg/mL and the “PD50 (median protective dose)” value (S. aureus Smith; S. aureus Smith infection, mice, sc) was 2.5 mg/kg. For the same substance, the “In vivo activity vs. S. aureus Smith infection (x/5 mice)” value (S. aureus Smith; dose (sc) 0.13 mg/kg) was 0/5, the “In vivo activity vs. S. aureus Smith infection (x/5 mice)” value (S. aureus Smith; dose (sc) 0.5 mg/kg) was 1/5 and the “In vivo activity vs. S. aureus Smith infection (x/5 mice)” value (S. aureus Smith; dose (sc) 2 mg/kg) was 2/5. For the same substance, the “In vivo activity vs. S. aureus Smith infection (x/5 mice)” value (S. aureus Smith; dose (sc) 8 mg/kg) was 4/5, the “PD50 (median protective dose)” value (E. coli NIHJ [5]; E. coli NIHJ infection, mice, sc) was 2.55 mg/kg and the “In vivo activity, E. coli NIHJ infection (x/5 mice)” value (E. coli NIHJ [5]; dose (sc) 0.13 mg/kg) was 0/5. For the same substance, the “In vivo activity, E. coli NIHJ infection (x/5 mice)” value (E. coli NIHJ [5]; dose (sc) 0.5 mg/kg) was 1/5, the “In vivo activity, E. coli NIHJ infection (x/5 mice)” value (E. coli NIHJ [5]; dose (sc) 2 mg/kg) was 1/5 and the “In vivo activity, E. coli NIHJ infection (x/5 mice)” value (E. coli NIHJ [5]; dose (sc) 8 mg/kg) was 5/5. The “Effect MST %T/C” value [6, 7] was 111%, the “MST Days” value [6, 7] was 10.0 days and the “Average Weight Change” value ([6]; Exp. #5439, 160 mcg/kg/day) was “+11 g”. The “Survivors Day 44” value ([6]; Exp. #5439, 160 mcg/kg/day) was 0/6, the “Survivors Day 5” value ([6]; Exp. #5439, 160 mcg/kg/day) was 6/6 and the “Effect MST %T/C” value [6, 8] was 194%. For the same substance, the “MST Days” value [6, 8] was 17.5 days, the “Survivors Day 44” value ([6]; Exp. #5439, 640 mcg/kg/day) was 1/6 and the “Survivors Day 5” value ([6]; Exp. #5439, 640 mcg/kg/day) was 6/6. For the same substance, the “Effect MST %T/C” value [6, 9] was > 489%, the “MST Days” value [6, 9] was > 44.0 days and the “Average Weight Change” value ([6]; Exp. #5439, 2560 mcg/kg/day) was “+10 g”. The “Survivors Day 44” value ([6]; Exp. #5439, 2560 mcg/kg/day) was 4/6, the “Survivors Day 5” value ([6]; Exp. #5439, 2560 mcg/kg/day) was 6/6 and the “Effect MST %T/C” value ([6]; Exp. #5501, 160 mcg/kg/day ip once daily for 8 days) was 157%. For the same substance, the “MST Days” value ([6]; Exp. #5501, 160 mcg/kg/day ip once daily for 8 days, Bu-2231 A and B as copper-free formate salts) was 11.0 days, the “Survivors Day 5” value ([6]; Exp. #5501, 160 mcg/kg/day) was 6/6 and the “Effect MST %T/C” value ([6]; Exp. #5501, 640 mcg/kg/day ip once daily for 8 days) was 179%. For the same substance, the “MST Days” value ([6]; Exp. #5501, 640 mcg/kg/day ip once daily for 8 days, Bu-2231 A and B as copper-free formate salts) was 12.5 days, the “Survivors Day 5” value ([6]; Exp. #5501, 640 mcg/kg/day) was 6/6 and the “minimum effective dose (MED)” value ([6]; Table I, Walker 256 ascitic tumor) was 0.64 mg/kg. For the same substance, the “Effect MST %T/C” value (Lewis Lung carcinoma; [10]) was 109%, the “MST Days” value (Lewis Lung carcinoma; [10]) was 24.0 days and the “Survivors Day 5” value (Lewis Lung carcinoma; 1 mg/kg/day) was 6/6. For the same substance, the “Effect MST %T/C” value (Lewis Lung carcinoma; [11]) was 109%, the “MST Days” value (Lewis Lung carcinoma; [11]) was 24.0 days and the “Survivors Day 5” value (Lewis Lung carcinoma; 2 mg/kg/day) was 6/6. The “Effect MST %T/C” value (Lewis Lung carcinoma; [12]) was 57%, the “MST Days” value (Lewis Lung carcinoma; [12]) was 12.5 days and the “Survivors Day 5” value (Lewis Lung carcinoma; 4 mg/kg/day) was 6/6. For the same substance, the “Effect MST %T/C” value (Lewis Lung carcinoma; [13]) was 48%, the “MST Days” value (Lewis Lung carcinoma; [13]) was 10.5 days and the “Survivors Day 5” value (Lewis Lung carcinoma; 8 mg/kg/day) was 6/6.

With Phleomycin [reference compound] the MIC (E. coli NIHJ [1]) was 0.8 µg/mL, the MIC (E. coli A20732) was 1.6 µg/mL and the MIC (K. pneumoniae A9678) was 12.5 µg/mL. The MIC (K. pneumoniae A20328) was > 100 µg/mL, the MIC (P. stuartii A20894) was 0.8 µg/mL and the MIC (S. marcescens A20460) was 0.8 µg/mL. It also gave an MIC (P. aeruginosa A9930) of 3.1 µg/mL, an MIC (S. aureus 209P) of 0.2 µg/mL and an MIC (S. aureus 209P, R4) of 0.4 µg/mL. It also gave an MIC (B. mycoides "0") of 0.2 µg/mL, an MIC (B. cereus ATCC 10702A) of 0.2 µg/mL and an MIC (B. anthracis 115) of 0.4 µg/mL. For the same substance, the MIC [2] was 0.4 µg/mL, the MIC (C. tropicalis IAM 4157) was 3.1 µg/mL and the MIC [3] was 6.3 µg/mL. The MIC (C. neoformans IAM 4514) was 0.4 µg/mL, the MIC (A. niger var Tieghem) was 0.4 µg/mL and the MIC [4] was 12.5 µg/mL. For the same substance, the MIC (C. lunata ATCC 13432) was 0.4 µg/mL, the MIC (T. mentagrophytes D-155) was 12.5 µg/mL and the MIC (M. canis D-51) was 6.3 µg/mL.
